Test results: patent US3950360A, “Antibiotic substances” (priority 1972, dated 1976)
Like-named read-outs stand apart in the source and are kept apart here.

What was measured:
[1] = Alcohol solution, neutralization titration method (pKa); type: physicochemical
Description: |Alcohol solution, |neutralization pH ranging |titration method

Solubility in solvents = type: physicochemical; conditions: "do." = same as A1
two-spotted spider mites = experiment: Test Example 1: acaricidal activity, dipping of kidneybean leaves infested with two-spotted spider mites; type: in vivo; conditions: for activity at 1.25 ppm: 1.25 p.p.m.; for activity at 2.5 ppm: 2.5 p.p.m.; for activity at 5 ppm / activity at 10 ppm / activity at 20 ppm: read-out: acaricidal activity (%); for activity at 0.04 ppm: 0.04 p.p.m.; for activity at 0.08 ppm: 0.08 p.p.m.; for activity at 0.16 ppm: 0.16 p.p.m.; for activity at 0.31 ppm: 0.31 p.p.m.; for activity at 0.63 ppm: 0.63 p.p.m.
citrus red mites = experiment: Test Example 3: acaricidal activity, spraying of orange leaves infested with citrus red mites; type: in vivo; conditions: after 24 hours
Procedure: This chemical solution was sprayed to orange leaves infested with citrus red mites, and the acaricidal activity (%) after 24 hours was calculated.

European red mites = experiment: Test Example 2: spraying of apple leaves infested with European red mites; type: in vivo; conditions: 5 days after spraying, non-treated 88/102
Procedure: An emulsifiable concentrate containing 20% of a of a crude B-41, which had been obtained by purifying two times according to alumina column chromatography the brown oily substance prepared in Example 1, was diluted to a given concentration to prepare a chemical solution. This chemical solution was sprayed to apple leaves infested with about 100 European red mites and, 5 days thereafter, the number of living mites was counted.

rice stem borer = experiment: Test Example 5: mortality of rice stem borer larvae in rice plants; type: in vivo, rice stem borer of 1st generation; conditions: 120 h, read-out: mortality (%) of the larvae
Procedure: Eggs of rice stem borer of 1st generation were inoculated to rice plants (variety "Kinmaze"), which had been planted in 200 cm^2 pots, and were hatched to allow the larvae invade the stems. Subsequently, a wettable powder containing 40% of a crude B-41, which had been obtained by purifying two times according to alumina column chromatography the brown oily substance prepared in Example 1, was diluted to a given concentration and then sprayed to the plants in a proportion of 100 cc. per pot. 5 Days thereafter, the stems were split to examine the alive and dead of the larvae, and the mortality (%) of the larvae was calculated.

In the case of COC1CC2(O)C(CO)=CC=CC(C)CC(C)=CCC3CC(CC4(CCC(C)C(C)O4)O3)OC(=O)C2C=C1C (stereo not drawn) [A1], the “pKa (No pKa at pH ranging from 2 to 12)” value [1] is reported as “No pKa”, the “Solubility in organic solvents ("easily soluble in n-hexane, benzene, acetone, ethanol and chloroform")” value (Solubility in solvents; n-hexane, benzene, acetone, ethanol and chloroform) is reported as “easily” and the “Solubility in water ("Difficultly soluble in water")” value (Solubility in solvents; water) is reported as “Difficultly”. The activity at 1.25 ppm (two-spotted spider mites; after 24 hours) was 0%, the activity at 2.5 ppm (two-spotted spider mites; after 24 hours) was 19.9% and the activity at 5 ppm (two-spotted spider mites; 5 p.p.m., after 24 hours) was 100%. The activity at 10 ppm (two-spotted spider mites; 10 p.p.m., after 24 hours) was 100% and the activity at 20 ppm (two-spotted spider mites; 20 p.p.m., after 24 hours) was 100%.
For CC1=CCC2CC(CC3(CCC(C)C(C)O3)O2)OC(=O)C2C=C(C)C(O)C3OCC(=CC=CC(C)C1)C23O (stereo not drawn) [A3], the “pKa (No pKa at pH ranging from 2 to 12)” value [1] was “do”, the activity at 0.04 ppm (two-spotted spider mites; after 24 hours) was 15.2% and the activity at 0.08 ppm (two-spotted spider mites; after 24 hours) was 100%. It also gave an activity at 0.16 ppm (two-spotted spider mites; after 24 hours) of 98.2%, an activity at 0.31 ppm (two-spotted spider mites; after 24 hours) of 100% and an activity at 0.63 ppm (two-spotted spider mites; after 24 hours) of 100%. The activity at 1.25 ppm (two-spotted spider mites; after 24 hours) was 100%, the activity at 2.5 ppm (two-spotted spider mites; after 24 hours) was 100% and the activity at 5 ppm (two-spotted spider mites; 5 p.p.m., after 24 hours) was 100%. For the same molecule, the activity at 10 ppm (two-spotted spider mites; 10 p.p.m., after 24 hours) was 100% and the activity at 20 ppm (two-spotted spider mites; 20 p.p.m., after 24 hours) was 100%.
Molecule CCC1OC2(CCC1C)CC1CC(CC=C(C)CC(C)C=CC=C3COC4C(O)C(C)=CC(C(=O)O1)C34O)O2 (stereo not drawn) [A4] has an activity at 0.04 ppm (two-spotted spider mites; after 24 hours) of 21.3%, an activity at 0.08 ppm (two-spotted spider mites; after 24 hours) of 100% and an activity at 0.16 ppm (two-spotted spider mites; after 24 hours) of 100%. For the same molecule, the activity at 0.31 ppm (two-spotted spider mites; after 24 hours) was 100%, the activity at 0.63 ppm (two-spotted spider mites; after 24 hours) was 100% and the activity at 1.25 ppm (two-spotted spider mites; after 24 hours) was 100%. It also gave an activity at 2.5 ppm (two-spotted spider mites; after 24 hours) of 100%, an activity at 5 ppm (two-spotted spider mites; 5 p.p.m., after 24 hours) of 100% and an activity at 10 ppm (two-spotted spider mites; 10 p.p.m., after 24 hours) of 100%. For the same molecule, the activity at 20 ppm (two-spotted spider mites; 20 p.p.m., after 24 hours) was 100%.
With COC1C(C)=CC2C(=O)OC3CC(CC=C(C)CC(C)C=CC=C4COC1C42O)OC1(CCC(C)C(C)O1)C3 (stereo not drawn) [B2] the “pH at which crystallization took place in the titration” value ([1]; alcohol solution, neutralization titration) was ~8.7, the activity at 0.08 ppm (two-spotted spider mites; after 24 hours) was 0% and the activity at 0.16 ppm (two-spotted spider mites; after 24 hours) was 16.6%. The activity at 0.31 ppm (two-spotted spider mites; after 24 hours) was 80.5%, the activity at 0.63 ppm (two-spotted spider mites; after 24 hours) was 100% and the activity at 1.25 ppm (two-spotted spider mites; after 24 hours) was 100%. It also gave an activity at 2.5 ppm (two-spotted spider mites; after 24 hours) of 100%, an activity at 5 ppm (two-spotted spider mites; 5 p.p.m., after 24 hours) of 100% and an activity at 10 ppm (two-spotted spider mites; 10 p.p.m., after 24 hours) of 100%. It also gave an activity at 20 ppm (two-spotted spider mites; 20 p.p.m., after 24 hours) of 100%.
Work on CCC1OC2(CCC1C)CC1CC(CC=C(C)CC(C)C=CC=C3COC4C(OC)C(C)=CC(C(=O)O1)C34O)O2 (stereo not drawn) [B3] yielded an activity at 0.04 ppm (two-spotted spider mites; after 24 hours) of 0%, an activity at 0.08 ppm (two-spotted spider mites; after 24 hours) of 18.3% and an activity at 0.16 ppm (two-spotted spider mites; after 24 hours) of 74.1%. It also gave an activity at 0.31 ppm (two-spotted spider mites; after 24 hours) of 100%, an activity at 0.63 ppm (two-spotted spider mites; after 24 hours) of 100% and an activity at 1.25 ppm (two-spotted spider mites; after 24 hours) of 100%. The activity at 2.5 ppm (two-spotted spider mites; after 24 hours) was 100%, the activity at 5 ppm (two-spotted spider mites; 5 p.p.m., after 24 hours) was 100% and the activity at 10 ppm (two-spotted spider mites; 10 p.p.m., after 24 hours) was 100%. It also gave an activity at 20 ppm (two-spotted spider mites; 20 p.p.m., after 24 hours) of 100%.
With CC1=CCC2CC(CC3(CCC(C)C(C)O3)O2)OC(=O)C2C=C(COC(=O)c3ccc[nH]3)C(O)C3OCC(=CC=CC(C)C1)C23O (stereo not drawn) [C1] the “pKa (No pKa at pH ranging from 2 to 12)” value [1] was “No pKa”, the activity at 0.04 ppm (two-spotted spider mites; after 24 hours) was 51.8% and the activity at 0.08 ppm (two-spotted spider mites; after 24 hours) was 100%. For the same molecule, the activity at 0.16 ppm (two-spotted spider mites; after 24 hours) was 100%, the activity at 0.31 ppm (two-spotted spider mites; after 24 hours) was 100% and the activity at 0.63 ppm (two-spotted spider mites; after 24 hours) was 100%. For the same molecule, the activity at 1.25 ppm (two-spotted spider mites; after 24 hours) was 100%, the activity at 2.5 ppm (two-spotted spider mites; after 24 hours) was 100% and the activity at 5 ppm (two-spotted spider mites; 5 p.p.m., after 24 hours) was 100%. For the same molecule, the activity at 10 ppm (two-spotted spider mites; 10 p.p.m., after 24 hours) was 100% and the activity at 20 ppm (two-spotted spider mites; 20 p.p.m., after 24 hours) was 100%.
In the case of CCC1OC2(CCC1C)CC1CC(CC=C(C)CC(C)C=CC=C3COC4C(O)C(COC(=O)c5ccc[nH]5)=CC(C(=O)O1)C34O)O2 (stereo not drawn) [C2], the “pKa (No pKa at pH ranging from 2 to 12)” value [1] is reported as “do”, the activity at 0.04 ppm (two-spotted spider mites; after 24 hours) is reported as 97.3% and the activity at 0.08 ppm (two-spotted spider mites; after 24 hours) is reported as 100%. It also gave an activity at 0.16 ppm (two-spotted spider mites; after 24 hours) of 100%, an activity at 0.31 ppm (two-spotted spider mites; after 24 hours) of 100% and an activity at 0.63 ppm (two-spotted spider mites; after 24 hours) of 100%. The activity at 1.25 ppm (two-spotted spider mites; after 24 hours) was 100%, the activity at 2.5 ppm (two-spotted spider mites; after 24 hours) was 100% and the activity at 5 ppm (two-spotted spider mites; 5 p.p.m., after 24 hours) was 100%. It also gave an activity at 10 ppm (two-spotted spider mites; 10 p.p.m., after 24 hours) of 100% and an activity at 20 ppm (two-spotted spider mites; 20 p.p.m., after 24 hours) of 100%.
In the case of OC(c1ccc(Cl)cc1)(c1ccc(Cl)cc1)C(Cl)(Cl)Cl [Kelthane, 1,1-Bis-(p-chlorophenyl)-2,2,2-trichloroethanol], the activity at 7 ppm (citrus red mites; 7 p.p.m.) is reported as 30.8%, the activity at 20 ppm (citrus red mites; 20 p.p.m.) is reported as 90.9% and the “number of mites living at counting / before spraying (given as fraction)” value (European red mites; 50 p.m.m. [sic]) is reported as 56/128. For the same molecule, the “number of mites living at counting / before spraying (given as fraction)” value (European red mites; 100 p.p.m.) was 8/103, the “number of mites living at counting / before spraying (given as fraction)” value (European red mites; 200 p.p.m.) was 0/97 and the activity at 5 ppm (two-spotted spider mites; 24 h) was 0%. The activity at 10 ppm (two-spotted spider mites; 24 h) was 56.4% and the activity at 20 ppm (two-spotted spider mites; 24 h) was 100%.
In the case of COP(=O)(OC)OC=C(Cl)Cl [Reference **], the mortality at 50 ppm (rice stem borer) is reported as 25.5% and the mortality at 100 ppm (rice stem borer) is reported as 82.1%.
